The values below come from patent US5132111A (priority 1990, dated 1992).

Non-standard residues stand in square brackets, D forms with d. Residues, ends and D or L forms follow the SMILES beside them. hArg = N=C(N)NCCCC[C@H](N)C(=O)O; Nle = CCCC[C@H](N)C(=O)O

The assay has as its system cultured rat pituitary cells. Format: cell-based.
As to `CCCC[C@H](NC(=O)[C@@H](NC(=O)[C@H](CC(C)C)NC(=O)[C@H](CC(=O)O)NC(=O)[C@H](CC(C)C)NC(=O)[C@H](CO)NC(=O)[C@@H](NC(=O)[C@@H]1CCCN1C(=O)[C@@H]1CCCN1C(=O)[C@@H](N)CCC(=O)O)[C@@H](C)CC)[C@@H](C)O)C(=O)N[C@@H](Cc1c[nH]cn1)C(=O)N[C@@H](CC(C)C)C(=O)N[C@@H](CC(C)C)C(=O)N[C@@H](CCCNC(=N)N)C(=O)N[C@@H](CCC(=O)O)C(=O)N[C@H](C(=O)N[C@@H](CC(C)C)C(=O)N[C@@H](CCC(=O)O)C(=O)N[C@@H](CCSC)C(=O)N[C@@H](C)C(=O)N[C@@H](CCCNC(=N)N)C(=O)N[C@@H](C)C(=O)N[C@@H](CCC(=O)O)C(=O)N[C@@H](CCC(N)=O)C(=O)N[C@@H](CC(C)C)C(=O)N[C@@H](C)C(=O)N[C@@H](CCC(=O)O)C(=O)N[C@@H](CCC(N)=O)C(=O)N[C@@H](C)C(=O)N[C@@H](Cc1c[nH]cn1)C(=O)N[C@@H](CO)C(=O)N[C@@H](CC(N)=O)C(=O)N[C@@H](CCCNC(=N)N)C(=O)N[C@@H](CCCNC(=N)N)C(=O)N[C@@H](CC(C)C)C(=O)N[C@@H](CCSC)C(=O)N[C@@H](CCC(=O)O)C(=O)N[C@H](C(=O)N[C@H](C(N)=O)[C@@H](C)CC)[C@@H](C)CC)C(C)C` (H-EPPISLDLT[Nle]HLLREVLEMARAEQLAEQAHSNRRLMEII-NH2), the “secretion of ACTH” value is “stimulates” and the “secretion of β-endorphin (β-END-LI)” value is “stimulates”.
`CCCC[C@H](NC(=O)[C@H](CCC(=O)O)NC(=O)[C@H](CCCNC(=N)N)NC(=O)[C@H](CC(C)C)NC(=O)[C@H](CC(C)C)NC(=O)[C@H](Cc1c[nH]cn1)NC(=O)[C@H](Cc1ccccc1)NC(=O)[C@@H](NC(=O)[C@H](CC(C)C)NC(=O)[C@H](CC(=O)O)NC(=O)[C@H](CC(C)C)NC(=O)[C@H](CO)NC(=O)[C@@H](NC(=O)[C@@H]1CCCN1C(=O)[C@@H]1CCCN1C(=O)[C@H](CCC(=O)O)NC(=O)[C@@H](N)CCC(N)=O)[C@@H](C)CC)[C@@H](C)O)C(=O)N[C@@H](CC(C)C)C(=O)N[C@@H](CCC(=O)O)C(=O)N[C@@H](CCSC)C(=O)N[C@H](C(=O)N[C@@H](CCCNC(=N)N)C(=O)N[C@@H](C)C(=O)N[C@@H](CC(=O)O)C(=O)N[C@@H](CCC(N)=O)C(=O)N[C@@H](CC(C)C)C(=O)N[C@@H](C)C(=O)N[C@@H](CCC(N)=O)C(=O)N[C@@H](CCC(N)=O)C(=O)N[C@@H](C)C(=O)N[C@@H](Cc1c[nH]cn1)C(=O)N[C@@H](CO)C(=O)N[C@@H](CC(N)=O)C(=O)N[C@@H](CCCNC(=N)N)C(=O)N[C@@H](CCCNC(=N)N)C(=O)N[C@@H](Cc1ccc(O)cc1)C(=O)N[C@@H](CC(C)C)C(=O)N[C@@H](CC(=O)O)C(=O)N[C@@H](CCC(=O)O)C(=O)N[C@@H](C)C(N)=O)[C@@H](C)O` (H-QEPPISLDLTFHLLRE[Nle]LEMTRADQLAQQAHSNRRYLDEA-NH2): the “secretion of ACTH” value was “stimulates” and the “secretion of β-endorphin (β-END-LI)” value was “stimulates”.
On to `CCCC[C@H](NC(=O)[C@H](CCC(=O)O)NC(=O)[C@H](CC(C)C)NC(=O)[C@H](CCCC)NC(=O)[C@H](CCC(=O)O)NC(=O)[C@H](CCCNC(=N)N)NC(=O)[C@H](CC(C)C)NC(=O)[C@H](CC(C)C)NC(=O)[C@H](Cc1c[nH]cn1)NC(=O)[C@H](Cc1ccccc1)NC(=O)[C@@H](NC(=O)[C@H](CC(C)C)NC(=O)[C@H](CC(=O)O)NC(=O)[C@H](CC(C)C)NC(=O)[C@H](CO)NC(=O)[C@@H](NC(=O)[C@@H]1CCCN1C(=O)[C@H]1CCCN1)[C@@H](C)CC)[C@@H](C)O)C(=O)N[C@@H](C)C(=O)N[C@@H](CCCNC(=N)N)C(=O)N[C@@H](C)C(=O)N[C@@H](CCC(=O)O)C(=O)N[C@@H](CCC(N)=O)C(=O)N[C@@H](CCC(=O)O)C(=O)N[C@@H](C)C(=O)N[C@@H](CCC(=O)O)C(=O)N[C@@H](CCC(N)=O)C(=O)N[C@@H](C)C(=O)N[C@@H](C)C(=O)N[C@@H](CC(C)C)C(=O)N[C@@H](CC(N)=O)C(=O)N[C@@H](CCCNC(=N)N)C(=O)N[C@@H](CC(C)C)C(=O)N[C@@H](CC(C)C)C(=O)N[C@@H](CC(C)C)C(=O)N[C@@H](CCC(=O)O)C(=O)N[C@@H](CCC(=O)O)C(=O)N[C@@H](C)C(N)=O` [[D-Pro^4, Nle^18,21]-AAHC(4-41)] (H-[dP]PISLDLTFHLLRE[Nle]LE[Nle]ARAEQEAEQAALNRLLLEEA-NH2), for which the “secretion of ACTH” value was “stimulates” and the “secretion of β-endorphin (β-END-LI)” value is listed as “stimulates”.
With `CCCC[C@H](NC(=O)[C@H](CCC(=O)O)NC(=O)[C@H](CC(C)C)NC(=O)[C@H](CCCC)NC(=O)[C@H](CCC(=O)O)NC(=O)[C@H](CCCNC(=N)N)NC(=O)[C@H](CC(C)C)NC(=O)[C@H](CC(C)C)NC(=O)[C@H](Cc1c[nH]cn1)NC(=O)[C@H](Cc1ccccc1)NC(=O)[C@@H](NC(=O)[C@H](CC(C)C)NC(=O)[C@H](CC(=O)O)NC(=O)[C@H](CC(C)C)NC(=O)[C@H](CO)NC(=O)[C@@H](NC(=O)[C@@H]1CCCN1C(=O)[C@H]1CCCN1C(=O)[C@H](N)Cc1ccc(O)cc1)[C@@H](C)CC)[C@@H](C)O)C(=O)N[C@@H](C)C(=O)N[C@@H](CCCNC(=N)N)C(=O)N[C@@H](C)C(=O)N[C@@H](CCC(=O)O)C(=O)N[C@@H](CCC(N)=O)C(=O)N[C@@H](CCC(=O)O)C(=O)N[C@@H](C)C(=O)N[C@@H](CCC(=O)O)C(=O)N[C@@H](CCC(N)=O)C(=O)N[C@@H](C)C(=O)N[C@@H](C)C(=O)N[C@@H](CC(C)C)C(=O)N[C@@H](CC(N)=O)C(=O)N[C@@H](CCCNC(=N)N)C(=O)N[C@@H](CC(C)C)C(=O)N[C@@H](CC(C)C)C(=O)N[C@@H](CC(C)C)C(=O)N[C@@H](CCC(=O)O)C(=O)N[C@@H](CCC(=O)O)C(=O)N[C@@H](C)C(N)=O` [[D-Tyr^3, D-Pro^4, Nle^18,21]-AHC(3-41)] (H-[dY][dP]PISLDLTFHLLRE[Nle]LE[Nle]ARAEQEAEQAALNRLLLEEA-NH2), the “secretion of ACTH” value is on record as “stimulates” and the “secretion of β-endorphin (β-END-LI)” value is reported as “stimulates”.
Regarding `CCCC[C@H](NC(=O)[C@H](CCC(=O)O)NC(=O)[C@H](CC(C)C)NC(=O)[C@H](CCCC)NC(=O)[C@H](CCC(=O)O)NC(=O)[C@H](CCCNC(=N)N)NC(=O)[C@H](CC(C)C)NC(=O)[C@H](CC(C)C)NC(=O)[C@H](Cc1c[nH]cn1)NC(=O)[C@H](Cc1ccccc1)NC(=O)[C@@H](NC(=O)[C@H](CC(C)C)NC(=O)[C@H](CC(=O)O)NC(=O)[C@H](CC(C)C)NC(=O)[C@H](CO)NC(=O)[C@@H](NC(=O)[C@@H]1CCCN1C(=O)[C@@H]1CCCN1C(=O)[C@H](N)Cc1ccc(O)cc1)[C@@H](C)CC)[C@@H](C)O)C(=O)N[C@@H](C)C(=O)N[C@@H](CCCNC(=N)N)C(=O)N[C@@H](C)C(=O)N[C@@H](CCC(=O)O)C(=O)N[C@@H](CCC(N)=O)C(=O)N[C@@H](CCC(=O)O)C(=O)N[C@@H](C)C(=O)N[C@@H](CCC(=O)O)C(=O)N[C@@H](CCC(N)=O)C(=O)N[C@@H](C)C(=O)N[C@@H](C)C(=O)N[C@@H](CC(C)C)C(=O)N[C@@H](CC(N)=O)C(=O)N[C@@H](CCCNC(=N)N)C(=O)N[C@@H](CC(C)C)C(=O)N[C@@H](CC(C)C)C(=O)N[C@@H](CC(C)C)C(=O)N[C@@H](CCC(=O)O)C(=O)N[C@@H](CCC(=O)O)C(=O)N[C@@H](C)C(N)=O` [[D-Tyr^3, Nle^18,21]-AAHC(3-41)] (H-[dY]PPISLDLTFHLLRE[Nle]LE[Nle]ARAEQEAEQAALNRLLLEEA-NH2), the “secretion of ACTH” value is given as “stimulates” and the “secretion of β-endorphin (β-END-LI)” value was “stimulates”.
Regarding `CC[C@H](C)[C@H](NC(=O)[C@@H]1CCCN1C(=O)[C@@H]1CCCN1)C(=O)N[C@@H](CO)C(=O)N[C@@H](CC(C)C)C(=O)N[C@@H](CC(=O)O)C(=O)N[C@@H](CC(C)C)C(=O)N[C@H](C(=O)N[C@@H](CC(C)C)C(=O)N[C@@H](Cc1c[nH]cn1)C(=O)N[C@@H](CC(C)C)C(=O)N[C@@H](CC(C)C)C(=O)N[C@@H](CCCNC(=N)N)C(=O)N[C@@H](CCC(=O)O)C(=O)N[C@@H](CCSC)C(=O)N[C@@H](CC(C)C)C(=O)N[C@@H](CCC(=O)O)C(=O)N[C@@H](CCSC)C(=O)N[C@@H](CCC(=O)O)C(=O)N[C@@H](CCCCNC(=N)N)C(=O)N[C@@H](C)C(=O)N[C@@H](CCC(=O)O)C(=O)N[C@@H](CCC(N)=O)C(=O)N[C@@H](CCC(=O)O)C(=O)N[C@@H](C)C(=O)N[C@@H](CCC(=O)O)C(=O)N[C@@H](CCC(N)=O)C(=O)N[C@@H](C)C(=O)N[C@@H](C)C(=O)N[C@@H](CC(C)C)C(=O)N[C@@H](CC(N)=O)C(=O)N[C@@H](CCCNC(=N)N)C(=O)N[C@@H](CCCCNC(=N)N)C(=O)N[C@@H](CC(C)C)C(=O)N[C@@H](CC(C)C)C(=O)N[C@@H](CCC(=O)O)C(=O)N[C@@H](CCC(=O)O)C(=O)N[C@@H](C)C(N)=O)[C@@H](C)O` [[Glu^22, Leu^12, Har^23,36]-AHC(4-41)] (H-PPISLDLTLHLLREMLEME[hArg]AEQEAEQAALNR[hArg]LLEEA-NH2), the “secretion of ACTH” value was “stimulates” and the “secretion of β-endorphin (β-END-LI)” value is recorded as “stimulates”.
For `CCCC[C@H](NC(=O)[C@H](CCC(=O)O)NC(=O)[C@H](CC(C)C)NC(=O)[C@H](CCCC)NC(=O)[C@H](CCC(=O)O)NC(=O)[C@H](CCCNC(=N)N)NC(=O)[C@H](CC(C)C)NC(=O)[C@H](CC(C)C)NC(=O)[C@H](Cc1c[nH]cn1)NC(=O)[C@H](Cc1ccccc1)NC(=O)[C@@H](NC(=O)[C@H](CC(C)C)NC(=O)[C@H](CC(=O)O)NC(=O)[C@H](CC(C)C)NC(=O)[C@H](CO)NC(=O)[C@@H](N)[C@@H](C)CC)[C@@H](C)O)C(=O)N[C@@H](C)C(=O)N[C@@H](CCCNC(=N)N)C(=O)N[C@@H](C)C(=O)N[C@@H](CCC(=O)O)C(=O)N[C@@H](CCC(N)=O)C(=O)N[C@@H](CCC(=O)O)C(=O)N[C@@H](C)C(=O)N[C@@H](CCC(=O)O)C(=O)N[C@@H](CCC(N)=O)C(=O)N[C@@H](C)C(=O)N[C@@H](C)C(=O)N[C@@H](CC(C)C)C(=O)N[C@@H](CC(N)=O)C(=O)N[C@@H](CCCNC(=N)N)C(=O)N[C@@H](CCCNC(=N)N)C(=O)N[C@@H](CC(C)C)C(=O)N[C@@H](CC(C)C)C(=O)N[C@@H](CCC(=O)O)C(=O)N[C@@H](CCC(=O)O)C(=O)N[C@@H](C)C(N)=O` [[Nle^18,21, Arg^36]-AAHC(6-41)] (H-ISLDLTFHLLRE[Nle]LE[Nle]ARAEQEAEQAALNRRLLEEA-NH2), the “secretion of ACTH” value is “stimulates” and the “secretion of β-endorphin (β-END-LI)” value was “stimulates”.
